What all share (assay): biochemical
Holding throughout (format): binding

In test [1] the target is kappa (κ) opioid receptor (Homo sapiens, UniProt P41145). The conditions noted are these: 2C2 cell line membrane, U69593-H3 ligand.
Test [2] deals with human nociceptin receptor (ORL-1) (Homo sapiens, UniProt P41146).
For another test, the target named is mu (μ) opioid receptor (Homo sapiens, UniProt P35372).
mu (μ) opioid receptor, sequence (P35372 whole entry): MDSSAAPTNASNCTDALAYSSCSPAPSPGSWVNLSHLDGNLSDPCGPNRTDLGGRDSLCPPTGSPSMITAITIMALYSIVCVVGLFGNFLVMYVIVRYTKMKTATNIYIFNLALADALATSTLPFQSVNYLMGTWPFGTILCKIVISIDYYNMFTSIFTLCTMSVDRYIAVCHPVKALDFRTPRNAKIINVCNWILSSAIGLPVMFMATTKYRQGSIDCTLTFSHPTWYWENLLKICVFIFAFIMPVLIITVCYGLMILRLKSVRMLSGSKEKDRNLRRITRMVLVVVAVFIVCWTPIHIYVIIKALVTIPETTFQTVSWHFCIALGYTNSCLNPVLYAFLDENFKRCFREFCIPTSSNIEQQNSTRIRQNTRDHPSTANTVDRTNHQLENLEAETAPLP

kappa (κ) opioid receptor, sequence (P41145 whole entry): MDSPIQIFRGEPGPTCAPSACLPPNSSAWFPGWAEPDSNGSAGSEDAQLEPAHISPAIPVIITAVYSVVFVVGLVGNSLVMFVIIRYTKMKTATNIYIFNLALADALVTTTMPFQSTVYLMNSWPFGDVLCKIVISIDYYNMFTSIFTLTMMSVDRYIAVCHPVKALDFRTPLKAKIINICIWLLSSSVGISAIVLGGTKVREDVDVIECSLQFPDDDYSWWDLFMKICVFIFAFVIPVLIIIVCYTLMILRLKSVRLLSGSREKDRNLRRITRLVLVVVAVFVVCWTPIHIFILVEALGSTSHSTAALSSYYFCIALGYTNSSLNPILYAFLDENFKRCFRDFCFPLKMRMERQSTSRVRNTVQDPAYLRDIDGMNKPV
human nociceptin receptor (ORL-1), sequence (P41146 whole entry): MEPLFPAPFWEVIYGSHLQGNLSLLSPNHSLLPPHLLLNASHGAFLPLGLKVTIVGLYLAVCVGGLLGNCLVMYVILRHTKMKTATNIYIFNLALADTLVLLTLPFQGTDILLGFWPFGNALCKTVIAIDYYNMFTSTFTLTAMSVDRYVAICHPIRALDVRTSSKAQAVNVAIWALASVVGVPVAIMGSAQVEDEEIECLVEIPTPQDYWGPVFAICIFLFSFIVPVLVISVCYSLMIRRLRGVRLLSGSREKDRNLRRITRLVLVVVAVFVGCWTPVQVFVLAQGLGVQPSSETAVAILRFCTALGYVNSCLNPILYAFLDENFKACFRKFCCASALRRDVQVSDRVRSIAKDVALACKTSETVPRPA

What is called IC50 is the midpoint of a concentration-inhibition curve. A higher IC50 goes with lower potency. `OC1CN(C2Cc3cccc4cccc2c34)CCC1c1c[nH]c2ncccc12` (mixture of isomers) [Cpd 40, 1-acenaphthen-1-yl-4-(1 H-pyrrolo[2,3-b]pyridin-3-yl)-piperidin-3-ol]: in test [1], half-maximal inhibition (IC50) required 4300 nM. Take `c1ccc2c(CN3CCC(c4c[nH]c5ncccc45)CC3)cccc2c1` [Cpd 33, 3-(1-naphthalen-1-ylmethyl-piperidin-4-yl)-1H-pyrrolo[2,3-b]pyridine]: the IC50 was 821 nM in test [2] and 345 nM at mu (μ) opioid receptor. As to `c1cc2c3c(cccc3c1)C(N1CCC(c3cn(C4Cc5cccc6cccc4c56)c4ncccc34)CC1)C2` (stereo not drawn) [Cpd 35, 1-acenaphthen-1-yl-3-(1-acenaphthen-1-yl-piperidin-4-yl)-1H-pyrrolo[2,3-b]pyridine], in test [1], the IC50 was 840 nM.

As to `c1cnc2[nH]cc(C3CCN(CC4CCCCC4)CC3)c2c1` [Cpd 52, 3-(1-cyclohexylmethyl-piperidin-4-yl)-1H-pyrrolo [2,3-b]pyridine], 3500 nM corresponded to half-maximal inhibition in test [2] (IC50).

On mu (μ) opioid receptor, `c1ccc(Oc2ccc(CN3CCC(c4c[nH]c5ncccc45)CC3)cc2)cc1` [Cpd 55, 3-[1-(4-phenoxy-benzyl)-piperidin-4-yl]-1H-pyrrolo[2,3-b]pyridine] registered an IC50 of 339 nM.

The values above are taken from US20080015214A1 (priority 2005, published 2008).
